Values quoted from earlier work, collected in paper PMC2946453 (Journal of pharmaceutical and biomedical analysis, 2010).
Read-outs that look alike come from different tables or passages of the source. Blank lines part the entries; values can stand above or below the molecule they belong to.

How the values were obtained:
COX-1 [1] = details: read-out: IC50 COX-1; bovine aortic coronary endothelial cells
human COX-2 = details: read-out: IC50 COX-2
COX-1 [2] = details: read-out: IC50 COX-1; form of COX not mentioned
COX-2 = details: read-out: IC50 COX-2; form of COX not mentioned
ovine COX-1 = molecular target: T1, ovine COX-1 (Ovis aries, UniProt P05979); details: read-out: Km ovine COX-1; radiolabeled arachidonic acid
T1 sequence (P05979 25-600): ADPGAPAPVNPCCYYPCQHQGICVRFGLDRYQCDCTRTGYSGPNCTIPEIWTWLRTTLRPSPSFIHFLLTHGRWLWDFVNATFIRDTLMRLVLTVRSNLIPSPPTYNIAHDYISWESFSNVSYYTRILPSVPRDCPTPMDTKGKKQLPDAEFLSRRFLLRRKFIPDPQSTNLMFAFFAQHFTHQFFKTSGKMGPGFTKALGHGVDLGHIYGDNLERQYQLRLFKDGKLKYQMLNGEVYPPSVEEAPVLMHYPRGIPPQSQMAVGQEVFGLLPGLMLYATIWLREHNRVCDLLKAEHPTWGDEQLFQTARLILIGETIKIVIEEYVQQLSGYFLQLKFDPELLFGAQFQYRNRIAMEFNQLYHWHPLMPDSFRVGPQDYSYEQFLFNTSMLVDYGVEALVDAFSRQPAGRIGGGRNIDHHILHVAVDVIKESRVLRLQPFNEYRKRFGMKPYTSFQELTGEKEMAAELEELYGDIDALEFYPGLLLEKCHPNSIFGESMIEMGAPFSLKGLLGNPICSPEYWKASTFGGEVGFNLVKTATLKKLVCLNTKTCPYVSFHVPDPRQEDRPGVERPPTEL

SMILES: O=C(O)Cc1ccccc1Nc1c(Cl)cccc1Cl [Diclofenac]
- IC50 (COX-1 [1]): […]

SMILES: Oc1ccc(/C=C/c2cc(O)cc(O)c2)cc1 [Resveratrol]
- IC50 (COX-1 [2]): 830 ± 440 nM
- IC50 (COX-2): 990 ± 400 nM

- Km (ovine COX-1): 3.7 ± 0.5 µM
SMILES: CCCCC/C=C\C/C=C\C/C=C\C/C=C\CCCC(=O)O [arachidonic acid]
